Test results published in US20030082135A1, “Pathway of RANTES-mediated chemokine synthesis in astrocytes and methods of use therefor” (priority 2001, published 2003).

Experiments:
[1] = tested on: primary neonatal mouse astrocyte cultures; assay: RNase protection assay (RPA) for chemokine/cytokine transcripts in astrocyte cultures; format: cell-based
Protocol: Astrocyte isolation and culture. […] RNA isolation and RNase protection assay (RPA). […] RNase protection assays (RPA) for chemokine message were conducted with multi-probe templates according to the manufacture's protocol (RiboQuant assay kit, BD-PharMingen, San Diego, Calif.). Gels were scanned and radioactive bands quantitated using a phosphoimager (Molecular Dynamics, Sunnyvale, Calif.). Levels of uniformly expressed housekeeping genes large ribosomal subunit protein 32-3A (L32) or glyceraldehyde-3-phosphate dehydrogenase (GAPDH), were used for normalization. The value of each chemokine receptor band divided by the value of the indicated housekeeping gene band in the same sample yielded the relative intensity. Normalized receptor expression represents the ratio of the relative intensity following treatment with chemokine versus the relative intensity of medium alone. Treatment with pharmacological inhibitors. Astrocytes were washed and resuspended in serum-and insulin-free complete medium and starved overnight. Cells were treated at 37° C. for 1 h with 100 ng/ml Pertussis toxin (PTx) before addition of RANTES or IL-1. […] The cells were harvested after a 3 h incubation with RANTES; RNA was prepared and assayed by RPA.

astrocytes = assay: ELISA of KC, TNF-α and MCP-1 protein in astrocyte culture supernatants; format: cell-based, mouse
Protocol: ELISA. For production of supernatants, 2×10^4 astrocytes were cultured in 96 well plates with medium or 100 ng/ml RANTES. Supernatants were collected after the indicated times. ELISA assays for KC and MCP-1 were performed as in Luo, Y., et al. 1999. J Immunol 163:3985, and for TNF-α as in Abromson-Leeman, et al. 2001. Eur J Immunol 31:527. Protein levels were determined using recombinant KC, MCP-1, or TNF-α (R & D Systems, Minneapolis, Minn.) as standards.

[2] = tested on: intracellular cAMP in astrocytes; assay: Intracellular cAMP in astrocytes (EIA); format: cell-based, mouse
Protocol: FIG. 8 is a set of bar graphs showing that RANTES reduced intracellular cAMP accumulation in astrocytes. Panel A. Astrocytes were treated with the indicated doses of RANTES or TCA4 for 5 min. Intracellular cAMP was detected as described in Materials and Methods. Values represent the mean±S.E.M of triplicate experiments. Panel B. Kinetics of intracellular cAMP levels. Astrocytes were treated with 100 ng/ml RANTES for indicated times. Panel C. RANTES inhibited forskolin-induced intracellular cAMP accumulation. Astrocytes were pretreated with 1 μM forskolin for 1 h then stimulated with the indicated amount of RANTES for 5 min. Intracellular cAMP was determined by EIA. Values are presented as relative cAMP level and represent the mean±S.E.M. of triplicate experiments.
To further elucidate the RANTES-mediated signaling pathway in astrocytes, intracellular cAMP levels were evaluated following chemokine stimulation. Primary mouse astrocytes were incubated with the indicated dose of RANTES or the negative control chemokine, TCA4 for 5 min and monitored for cAMP levels. RANTES (100 ng/ml) decreased intracellular cAMP levels by 68% in a dose dependent fashion (FIG. 8A).

PKA = PKA activity assay on lysates of treated astrocytes; format: cell-based, mouse
Protocol: PKA activity assay. PKA activity was determined using a commercially available kit (Calbiochem, San Diego, Calif.) according to manufacturer's recommendations. Primary mouse astrocytes were grown in 6-well plates and then stimulated as described and lysed in 100 μl buffer (same buffer used for Western blotting) for 30 min. Five μl of the lysates were incubated with 20 μl PKA reaction mixture at 30° C. for 30 min. The reaction was terminated by adding 10 μl stop solution and ^32P radioactivity was counted.

[3] = tested on: CXCR4, CX3CR1, CCR1, CCR5 transcripts in astrocytes; assay: RPA for chemokine receptor transcripts in astrocytes; format: cell-based, mouse; conditions: average, pooled results of 3-4 experiments
Protocol: RNA isolation and RNase protection assay (RPA). RNA was prepared as in Luo, Y., et al. 1999. J Immunol 163:3985. RNase protection assays (RPA) for chemokine message were conducted with multi-probe templates according to the manufacture's protocol (RiboQuant assay kit, BD-PharMingen, San Diego, Calif.). Gels were scanned and radioactive bands quantitated using a phosphoimager (Molecular Dynamics, Sunnyvale, Calif.). Levels of uniformly expressed housekeeping genes large ribosomal subunit protein 32-3A (L32) or glyceraldehyde-3-phosphate dehydrogenase (GAPDH), were used for normalization. The value of each chemokine receptor band divided by the value of the indicated housekeeping gene band in the same sample yielded the relative intensity. Normalized receptor expression represents the ratio of the relative intensity following treatment with chemokine versus the relative intensity of medium alone.
Treatment with the RANTES-related chemokines RANTES or eotaxin, or with TNF-α also found to down-regulate expression of CX3CR1 transcripts. In addition, CXCR4 mRNA levels were decreased, while the levels of CCR1 transcripts were elevated. In contrast, little or no regulation of CCR5 was noted. The pooled results of 3-4 experiments indicate eotaxin caused an average 60% decrease in CXCR4 (P less than 0.01) and a 70% decrease in CX3CR1 mRNA (P less than 0.02) (FIG. 8.B). The effects of RANTES stimulation were similar with an average 70 and 90% reduction in CXCR4 and CX3CR1 transcripts, respectively (P less than 0.01).

[4] = tested on: cultured mouse astrocytes; assay: RT-PCR for KC message in astrocytes; format: cell-based
GFAP in astrocytes = assay: Immunofluorescence of GFAP in astrocytes; format: cell-based, mouse; conditions: 100 ng/ml RANTES for 1-5 days
Protocol: Astrocytes associated with Alzheimer's Disease, MS and EAE lesions frequently display increased levels of the intracellular marker GFAP, an indicator of astrogliosis (Xu et al., 1999. Glia 25:390-403). To determine if chemokines could modulate GFAP expression astrocytes were treated with 100 ng/ml RANTES for 1-5 days and then examined for the intracellular marker GFAP by conventional immunofluorescence. Evidence for modulation of GFAP was not observed.

Substance: RANTES
- production of chemokine transcripts by astrocytes from mice deficient for CCR1, CCR2, CCR3, or CCR5 ([1]; 100 ng/ml): specifically responded
- expression of TNF-α, RANTES, KC, MIP-1α, MIP-2, and MCP-1 transcripts ([1]; BALB/cJ neonatal astrocytes, chemokine for 6 h): up-regulated
- duration of RANTES transcription ([1]; RANTES-induced): greater than 24 h
- time after which TNF-α mRNA disappeared ([1]; RANTES-induced): 18 h
- time at which TNF-α mRNA was detected ([1]; RANTES-induced): 1.5 h
- time at which bands for RANTES and MIP-1α were visible ([1]; RANTES-induced): 3 h
- time by which MIP-1α mRNA was down regulated ([1]; RANTES-induced): ≤ 24 h
- time of transient production of IL-6 transcripts ([1]; RANTES-induced): 6 to 24 h
- transcripts for the chemokine TCA3 ([1]; RANTES-induced, any time point): not detected
- time at which RANTES and IL-6 transcripts appear ([1]; after RANTES stimulation): 4 to 8 h
- time at which TNF-α, KC, and MIP-2 transcripts were detected ([1]; after RANTES stimulation): 60 to 90 min
- time at which bands for MIP-1α and MCP-1 became visible ([1]; after RANTES stimulation): 2 h
- expression of TNF-α, RANTES, KC, IL-6, MIP-1α, MIP-2, and MCP-1 transcripts ([1]; astrocytes treated with RANTES, time course): up-regulated
- ability to induce chemokine transcripts after boiling ([1]; boiled for 30 min before incubation with astrocytes): completely destroyed
- concentration yielding optimal stimulation of transcripts ([1]; preliminary experiments): 100 ng/mL
- time at which KC protein reached a plateau (astrocytes; 100 ng/ml RANTES): 1 days
- time at which KC protein synthesis was detectable (astrocytes; 100 ng/ml RANTES): ≤ 8 h
- time at which KC protein was detected (astrocytes; 100 ng/ml RANTES): 12 h
- KC protein concentration in supernatant (astrocytes; 100 ng/ml RANTES, after 16 h): 20 to 30 ng/mL
- TNF-α protein level in supernatant (astrocytes; 100 ng/ml RANTES, after 16 h): less than 120 pg/ml
- TNF-α protein in culture supernatants (astrocytes; 6 h after RANTES stimulation): not detectable
- TNF-α protein in culture supernatants (astrocytes; 12 h after RANTES stimulation): greater than 100 pg/ml
- time of peak TNF-α protein levels (astrocytes; RANTES stimulation): 24 h
- time within which intracellular cAMP was dramatically decreased ([2]; 100 ng/ml RANTES): ≤ 1 min
- decrease of intracellular cAMP levels ([2]; 100 ng/ml, 5 min): 68%
- effect on forskolin-induced cAMP accumulation ([2]; 1 μM forskolin 1 h, then RANTES 5 min): inhibited forskolin-induced cAMP accumulation in a dose dependent manner
- inhibition of PKA activity (PKA; 100 ng/ml RANTES, 20 min): 60%
- time of maximal reduction of PKA kinase activity (PKA; after RANTES stimulation): 10 min
- decrease in CX3CR1 mRNA [3]: 90%
- decrease in CXCR4 mRNA [3]: 70%
- synthesis of KC message [4]: induce synthesis of KC message
- modulation of GFAP (GFAP in astrocytes): not observed
